Series [1] in a line: Pharmacokinetics study in humans: plasma levels by LC-MS/MS after a single oral administration. In kind it is in vivo, human. As to conditions: for time at which the peak concentration in the plasma was reached / terminal plasma half-life (t1/2): human plasma, single oral administration of C16/C18-DP-VPA (13%:87% w/w); for terminal plasma half-life (t1/2): calculated from plasma concentration-time profiles; for plasma concentration: human. Here is the method:
In order to assess the pharmacokinetic properties of the C16-DP-VPA and C18-DP-VPA compounds, the plasma levels of these compounds were monitored in human subjects.
Healthy male volunteers, 18-40 year old, (7 individuals for each dose tested) received, by a single oral administration, 0.3125 g, 0.625 g or 1.25 g of C16/C18-DP-VPA mixture at a ratio of C16/C18=13%: 87% (w/w). Blood samples, 10 ml each, were drawn from each individual at the time points after the administration of the drug, as indicated. The samples were centrifuged at 4° C. at 1100 g for 10 minutes immediately after collection. Plasma levels of C16-DP-VPA and C18-DP-VPA were determined using a LC-MS/MS technique. The plasma concentration profiles of C16-DP-VPA and C18-DP-VPA as monitored for 24 hours following a single oral administration 0.625 g of C16/C18-DP-VPA are shown, respectively, in FIGS. 2A and 2B.

Series [2] relates to pentylenetetrazol (PTZ) induced seizure. Nature of the series: PTZ-induced seizures test in mice. In kind it is in vivo, CD-1 mice. The conditions noted are these: for time of peak activity / maximal therapeutic effect: PTZ-induced seizures, s.c. equivalent to 40 mg/kg VPA; for % Protection / Second seizure (n//N): s.c. pre-treatment equivalent to 40 mg/kg VPA. Here is the method: The anti-epileptic efficacies of C16-DP-VPA, C18-DP-VPA and mixtures comprising both C16-DP-VPA and C18-DP-VPA were evaluated in mice. The protective effect of the compounds was compared at different time points following chemical seizure induction by pentylenetetrazol (PTZ).
The pentylenetetrazol (PTZ) induced seizure model in mice is an established animal model system for epilepsy. Subcutaneous injection of PTZ into control animals results in the following sequence of events: myoclonic jerks within 1-2 mins, followed by clonic and clonic-tonic seizures each lasting approximately 5-10 secs with the severity of seizures increasing with time for up to 30 mins. 80% of the first seizures are-observed within 5 mins, and 100% within 20 mins. The second seizures usually follow within 6-10 mins and subsequent seizures (if any) every 6 mins.
CD-1 mice (25-30 g) were pre-treated by subcutaneous (s.c.) injection of either C16-DP-VPA or C18-DP-VPA or a mixture thereof. The amounts used were equivalent to 40 mg/kg VPA. After different times as indicated, 1, 2 or 4 hours, a convulsive dose of pentylenetetrazol (85-100 mg/kg) was subcutaneously injected into the mice. The animals were monitored for one hour following the PTZ administration for the occurrence of episodes of clonic spasms persisting for at least 5 sec.

For series [3] the following is noted: compared with sodium valproate; from Ser. No. 08/479,959 and WO 94/22483; listed as TVA 16; cited from earlier work.
Where [4] appears, read: 1 hour after single oral 0.625 g C16/C18-DP-VPA.
Where [5] appears, read: 3 hours after single oral 0.625 g C16/C18-DP-VPA.
[6] abbreviates: 6 hours after single oral 0.625 g C16/C18-DP-VPA.
[7] abbreviates: 8 hours after single oral 0.625 g C16/C18-DP-VPA.
Where [8] appears, read: 10 hours after single oral 0.625 g C16/C18-DP-VPA.
The mark [9] stands for this setting: 12 hours after single oral 0.625 g C16/C18-DP-VPA.

“Also recorded” adds a separate entry of the source.

Turning to `CCCCCCCCCCCCCCCC(=O)OC[C@H](COP(=O)([O-])OCC[N+](C)(C)C)OC(=O)C(CCC)CCC` [C16-DP-VPA, 1-Palmitoyl-2-valproyl-sn-glycero-3-phosphatidylcholine], the “time at which the peak concentration in the plasma was reached” value in series [1] was 6 h. In series [1], the “terminal plasma half-life (t1/2)” value is 14.0 ± 0.6 h. For the same compound, the plasma concentration was 0.013 ± 0.034 µg/mL in series [1] (setting [4]); 0.167 ± 0.094 µg/mL in series [1] (setting [5]); 0.397 ± 0.172 µg/mL in series [1] (setting [6]); 0.385 ± 0.140 µg/mL in series [1] (setting [7]); 0.368 ± 0.182 µg/mL in series [1] (setting [8]); 0.318 ± 0.150 µg/mL in series [1] (setting [9]). For the same compound, the “time of peak activity / maximal therapeutic effect” value in series [2] was at most 1 h. Further, the “% Protection” value in series [2] (PTZ after 1 h) is listed as 50%; in series [2] (PTZ after 2 h) it was 25%; in series [2] (PTZ after 4 h), 38%. Also, the figures for the “Second seizure (n//N)” value in series [2] (PTZ after 1 h), in series [2] (PTZ after 2 h) and in series [2] (PTZ after 4 h) were 4/8, 6/8 and 5/8, respectively. Besides, the anticonvulsant activity result in series [3] is reported as “significant anticonvulsant activity; also recorded: more potent than sodium valproate”.
With `CCCCCCCCCCCCCCCCCC(=O)OC[C@H](COP(=O)([O-])OCC[N+](C)(C)C)OC(=O)C(CCC)CCC` [C18-DP-VPA, 1-Stearoyl-2-valproyl-sn-glycero-3-phosphatidylcholine], the “time at which the peak concentration in the plasma was reached” value in series [1] turned out to be 8 h. In series [1], the “terminal plasma half-life (t1/2)” value is 8.3 ± 1.3 h. The plasma concentration in series [1] (setting [4]) was 0.000 ± 0.000 µg/mL; in series [1] (setting [5]) it was 0.058 ± 0.043 µg/mL; in series [1] (setting [6]) it was 0.818 ± 0.292 µg/mL; in series [1] (setting [7]), 1.175 ± 0.137 µg/mL; in series [1] (setting [8]), 0.949 ± 0.254 µg/mL; in series [1] (setting [9]) it was 0.698 ± 0.163 µg/mL. For the same compound, in series [2], the “time of peak activity / maximal therapeutic effect” value was 4 h. In addition, the figures for the “% Protection” value in series [2] (PTZ after 1 h), in series [2] (PTZ after 2 h) and in series [2] (PTZ after 4 h) were 17%, 14% and 86%, respectively. In addition, the “Second seizure (n//N)” value in series [2] (PTZ after 1 h) is on record as 5/6; in series [2] (PTZ after 2 h), 6/7; in series [2] (PTZ after 4 h), 1/7.

The values are drawn from patent US20040033987A1, “Phospholipid derivatives of valproic acid and mixtures thereof” (priority 2003, published 2004).
